In patent US7378419B2, “9-amino-podophyllotoxin derivatives, method for the production thereof and pharmaceutical compositions containing said derivatives” (Les Laboratoires Servier, priority 2003, dated 2008):
pIC50: −log10 of the molar value.

Assays:
L1210 = assay: In vitro cytotoxicity, microculture tetrazolium assay, L1210; format: cell-based; details: L1210 murine leukemia, 48 hours exposure
Protocol: (§1) Six cell lines were used: • 1 murine leukemia: L1210 • 1 human epidermal carcinoma: KB-3-1 • 1 human pulmonary carcinoma, not small cell: A549 • 1 melanoma: A375 • 1 neuroblastoma: SK-N-MC • 1 fibrosarcoma: HT1080
(§2) The cells are cultivated in complete RPMI 1640 culture medium containing 10% of fetal calf serum, 2 mM of glutamine, 50 U/ml of penicillin, 50 μg/ml of streptomycin and 10 mM of Hepes, pH: 7.4. The cells are distributed in microplates and exposed to cytotoxic compounds for 4 doubling times, which is 48 hours. The number of viable cells is then quantified by a […] assay, the microculture tetrazolium assay (J. Carmichael et al., Cancer Res.; 47, 936-942, (1987)). The results are expressed as IC50, the cytotoxic concentration that inhibits the proliferation of the treated cells by 50%.

L1210 cells = assay: Action on the cell cycle (G2+M accumulation); format: cell-based, murine; details: L1210, after 21 hours, concentration of 250 nM (control: 20%)
Protocol: The L1210 cells are incubated for 21 hours at 37° C. in the presence of various concentrations of the products tested. The cells then are fixed with 70% ethanol (v/v), washed twice in PBS and incubated for 30 minutes at 20° C. in PBS containing 100 μg/ml of RNase and 50 μg/ml of propidium iodide. The results are expressed as a percentage of cells accumulated in phase G2+M after 21 hours compared to the control (control: 20%). The compounds of examples 2 and 4 induce an accumulation of 70% and 81%, respectively, of the cells in phase G2+M after 21 hours at a concentration of 250 nM.

KB-3-1 = assay: In vitro cytotoxicity, microculture tetrazolium assay, KB-3-1; format: cell-based; details: KB-3-1 human epidermal carcinoma, 48 hours exposure
Protocol: as §1, §2

A549 = assay: In vitro cytotoxicity, microculture tetrazolium assay, A549; format: cell-based; details: A549 human pulmonary carcinoma, not small cell, 48 hours exposure
Protocol: as §1, §2

A375 = assay: In vitro cytotoxicity, microculture tetrazolium assay, A375; format: cell-based; details: Homo sapiens, A-375; A375 melanoma, 48 hours exposure
Protocol: as §1, §2

SK-N-MC = assay: In vitro cytotoxicity, microculture tetrazolium assay, SK-N-MC; format: cell-based; details: Homo sapiens; SK-N-MC neuroblastoma, 48 hours exposure
Protocol: as §1, §2

HT1080 = assay: In vitro cytotoxicity, microculture tetrazolium assay, HT1080; format: cell-based; details: Homo sapiens, HT-1080; HT1080 fibrosarcoma, 48 hours exposure
Protocol: as §1, §2

P388 leukemia = assay: In vivo anti-tumor activity on P388 leukemia; details: P388, 50 mg/kg, intravenously on day 1, female BDF1 mice
Protocol: The P388 line (murine leukemia) was provided by the National Cancer Institute (Frederick, Md., USA). The tumor cells (10^6 cells) were inoculated on day 0 in the peritoneal cavity of female BDF1 mice (Iffa-Credo, France) weighing from 18 to 20 g (groups of 6 animals). The products were administered intravenously on day 1.
(§3) The anti-tumor activity is expressed in T/C %: T/C%=(median survival time of the treated animals)/(median survival time of the control animals)×100

[1] = tested on: A549 human pulmonary carcinoma; assay: In vivo anti-tumor activity on A549 human pulmonary carcinoma; details: A549, 3.12 mg/kg
Source text: *Anti-Tumor Activity of the Compounds on P388 Leukemia and on A549 Human Pulmonary Carcinoma:
as §3

COc1cc([C@@H]2c3cc4c(cc3[C@@H](NC3=CC(=O)N(Cc5ccc(NC(C)=O)cc5)C3=O)[C@H]3COC(=O)[C@H]23)OCO4)cc(OC)c1O
melting point: 200 to 204 °C (dec.)

COc1cc([C@@H]2c3cc4c(cc3[C@@H](NC3=CC(=O)N(Cc5ccccc5)C3=O)[C@H]3COC(=O)[C@H]23)OCO4)cc(OC)c1O [Example 4, 3-{[(5S,5aS,8aR,9R)-9-(4-Hydroxo-3,5-dimethoxyphenyl)-8-oxo-5,5a,6,8,8a,9-hexahydrofuro[3′,4′:6,7]naphtho[2,3-d][1,3]dioxol-5-yl]amino}-1-benzyl-1H-pyrrole-2,5-dione]
pIC50 (L1210): 7.54
percentage of cells accumulated in phase G2+M (L1210 cells): 81%

COc1cc([C@@H]2c3cc4c(cc3[C@@H](NC3=CC(=O)N(Cc5ccc(C(F)(F)F)cc5)C3=O)[C@H]3COC(=O)[C@H]23)OCO4)cc(OC)c1O
melting point: 184 to 186 °C

COc1cc([C@@H]2c3cc4c(cc3[C@@H](NC3=CC(=O)N(Cc5ccc(F)cc5)C3=O)[C@H]3COC(=O)[C@H]23)OCO4)cc(OC)c1O[Si](C)(C)C(C)(C)C
melting point: 182 to 184 °C

C=CCN1C(=O)C=C(N[C@@H]2c3cc4c(cc3[C@@H](c3cc(OC)c(O)c(OC)c3)[C@H]3C(=O)OC[C@@H]32)OCO4)C1=O
melting point: 180 to 183 °C

COc1cc([C@@H]2c3cc4c(cc3[C@@H](NC3=CC(=O)N(Cc5ccc(NC(C)=O)cc5)C3=O)[C@H]3COC(=O)[C@H]23)OCO4)cc(OC)c1O[Si](C)(C)C(C)(C)C
melting point: 177 to 179 °C

COc1cc([C@@H]2c3cc4c(cc3[C@@H](NC3=CC(=O)N(Cc5ccc(F)cc5)C3=O)[C@H]3COC(=O)[C@H]23)OCO4)cc(OC)c1O
melting point: 214 to 216 °C

COc1cc([C@@H]2c3cc4c(cc3[C@@H](NC3=CC(=O)N(CCCCCC(=O)O)C3=O)[C@H]3COC(=O)[C@H]23)OCO4)cc(OC)c1O
melting point: 150 to 152 °C

COc1cc([C@@H]2c3cc4c(cc3[C@@H](NC3=CC(=O)N(C)C3=O)[C@H]3COC(=O)[C@H]23)OCO4)cc(OC)c1O [Example 2, 3-{[(5S,5aS,8aR,9R)-9-(4-Hydroxy-3,5-dimethoxyphenyl)-8-oxo-5,5a,6,8,8a,9-hexahydrofuro[3′,4′:6,7]naphtho[2,3-d][1,3]dioxol-5-yl]amino}-1-methyl-1H-pyrrole-2,5-dione]
pIC50 (L1210; Mus musculus): 7.27
pIC50 (KB-3-1): 7.18
pIC50 (A549): 6.96
pIC50 (A375): 7.35
pIC50 (SK-N-MC): 6.97
pIC50 (HT1080): 7.12
percentage of cells accumulated in phase G2+M (L1210 cells): 70%
T/C (median survival time treated/control x 100) (P388 leukemia): > 575%
animals surviving as of day 60 (P388 leukemia): 50%
T/C [1]: 225%

COc1cc([C@@H]2c3cc4c(cc3[C@@H](NC3=C(C)C(=O)N(C)C3=O)[C@H]3COC(=O)[C@H]23)OCO4)cc(OC)c1O
melting point: 172 to 176 °C
